Results: paper PMC9166630, “SAR Probing of KX2-391 Provided Analogues With Juxtaposed Activity Profile Against Major Oncogenic Kinases” (Frontiers in Oncology, 2022)
Several values for one entry are separate records, joined by “and”; a condition that tells them apart may be missing. Equal values may be shown once.

What was measured:
AKT 1/2/3 = assay: Human phosphokinase array, AKT 1/2/3; assay type: cell-based
Source text: (§1) The kinome tree representation (Figure 7C), which was generated by raising the Kinase Score cut-off to >1.2, confirmed that, unlike tirbanibulin and our prototype molecule KX1-136, 4e’s effects were more observable on kinases other than the Src family such as the Eph and TEC families. […] Therefore, we screened compound 4e using the Human Phospho-Kinase Array® kit from R&D systems (Minneapolis, MN, USA). In this system, 35 phosphorylated YK and serine-threonine kinase (STK) enzymes in the untreated (control) and treated (test) HL60 cell lysates were captured on nitrocellulose membrane, pre-spotted with phosphokinase-specific capture antibodies, and then visualized by detection antibody cocktails (Figure 8). The difference in the spot intensity between untreated (control) and treated cells is proportional to change in the amount of the phosphorylated protein induced by 4e.
(§2) The phosphorylation profile of 48 kinases was performed using the Proteome Profiler Human Phospho-Kinase Antibody Array Kit by R&D Systems (Minneapolis, MN, USA) according to the protocol. Briefly, the total cellular protein was extracted using the Lysis buffer and was quantified using Bio-Rad DC Protein Assay kit (Hercules, CA, USA). Nitrocellulose membrane set (A&B), pre-spotted with kinase-specific capture antibodies, were first blocked with Array Buffer-1 at RT for 30 min on a rocking platform shaker. Approximately 600 µg of protein concentrate was diluted in the buffer provided and was added onto the membrane set, and the membranes were incubated overnight at 4°C in an 8-well plate. Subsequently, membranes were washed with Wash Buffer and incubated with appropriate Detection Antibody cocktails for 2 h at RT. Streptavadin-HRP (1:2000) was added onto membranes and incubated for 30 min at RT. Membranes were washed, and Chemiluminescent Detection Reagents 1&2 were applied in equal volumes for detection. The signals were detected on C-DiGit®Blot Scanner (LI-COR, Odyssey Imaging Systems, Lincoln, Nebraska, USA) using Image Studio 5.0 software.

GSK-3α/β = assay: Human phosphokinase array, GSK-3α/β; assay type: cell-based
Source text: as §1, §2

Yes = assay: PamChip tyrosine kinase microarray, Yes; assay type: biochemical, human; details: 4e 0.1 µM, HL60 lysate
Experimental: (§3) The changes in kinase activities induced by treatment with 4e were monitored within the HL60 cell lines using PamGene’s (Hertogenbosch, Netherlands) PamChip® peptide microarray profiler, which quantifies the activities of 144 tyrosine kinases (YK) ([29], [30]) (Figure 7). Results are provided as a log fold change (LFC) heatmap and Mean Kinase Statistic. From the LFC it is apparent that compound 4e, at a concentration of 0.1 µM, induced sizable changes to the activity of several kinases within the cell signaling YK profile (Figure 7A).
(§4) An Upstream Kinase tool was used to generate a putative list of kinases responsible for phosphorylating the phospho-sites on the PamChip (Figure 7B) ([31]). It is an interpretation and is highly dependent on the contents of the underlying phosphorylation databases. A Kinase Score was used for ranking kinases based on their significance and specificity in terms of the set of peptides used for the corresponding kinase. Kinase Statistics indicates the overall change of the peptide set that represents the kinase. Kinase statistics value <0 indicates lower kinase activity in the compound spiked lysate and vice versa ([32], [33]). Table 5 lists the 20 most changed kinases within treated HL60 cell lysates by 0.1 μM 4e, ranked according to their Kinase Score.
(§5) The two multiple-kinase tests (PamChip and Phosphokinase Profiler) provided strong evidence of very minor involvement of Src in the cellular activities of 4e. However, the question must be raised about the effect of the 4e on other SRC family kinase (SFK). To address this point, we must highlight that both R&D phosphokinase profiler and PamChip feature Yes, Fgr, Lyn, Lck and Src while Fyn, Hck, Blk and Frk activities are tested in the PamChip only. The signals of SFKs in the R&D Phosphokinase Profiler were too weak to detect in both untreated (control) and 4e-treated HL60 cells. In PamChip assay, most of SFK’s were not ranked in the top 20 affected kinases (Table 5). In addition, their Specificity Score were very low (Table 6) indicating their marginal importance to the cell killing activities of 4e. Fgr kinase which ranked 7th in the list (Table 5) was the only SFK member that seems to be affected by the compound, albeit with low Specificity Score (1.03).
(§6) The compound 4e was spiked into HL60 cell lysate at different concentrations (0.001, 0.01, 0.1, 1, 10 and 50 μM). In addition, DMSO was also spiked in HL60 lysate at low concentration (2% v/v) as control. Samples were profiled on PamGene’s Tyrosine Kinase (PTK) arrays in technical replicates, covering a total of 196 phosphorylation sites. Frozen HL60 cultured cell pellet was sent to PamGene. […] Protein concentration was measured using standard Bradford assay as per PamGene SOPs. […]

HSP27 = assay: Human phosphokinase array, HSP27; assay type: cell-based
Source text: as §1, §2

JNK1/2/3 = assay: Human phosphokinase array, JNK1/2/3; assay type: cell-based
Source text: as §1, §2

CTK = assay: PamChip tyrosine kinase microarray, CTK; assay type: biochemical, human; details: 4e 0.1 µM, HL60 lysate
Experimental: as §3, §4
(§7) The compound 4e was spiked into HL60 cell lysate at different concentrations (0.001, 0.01, 0.1, 1, 10 and 50 μM). In addition, DMSO was also spiked in HL60 lysate at low concentration (2% v/v) as control. Samples were profiled on PamGene’s Tyrosine Kinase (PTK) arrays in technical replicates, covering a total of 196 phosphorylation sites. Frozen HL60 cultured cell pellet was sent to PamGene. At PamGene, cells were lysed using a lysis buffer and proteases inhibitors cocktail. Protein concentration was measured using standard Bradford assay as per PamGene SOPs. These lysates were further used for generating the PTK activity profiles. For spiking, 4e was received as powder form and dissolved in DMSO at PamGene facility followed by storing at -20°C in small aliquots. PamGene used its in-house bioinformatics toolbox in combination with other methods to generate hypotheses of signaling pathways.

Fyn = assay: PamChip tyrosine kinase microarray, Fyn; assay type: biochemical, human; details: 4e 0.1 µM, HL60 lysate
Experimental: as §3, §4, §5, §6

Ret = target: T1, Ret (Homo sapiens, UniProt P07949); assay: PamChip tyrosine kinase microarray, Ret; assay type: biochemical; details: 4e 0.1 µM, HL60 lysate
T1 construct: endogenous in cells; host or cells: HL60 lysate
Experimental: as §3, §4, §7

T1 sequence (P07949 29-1114): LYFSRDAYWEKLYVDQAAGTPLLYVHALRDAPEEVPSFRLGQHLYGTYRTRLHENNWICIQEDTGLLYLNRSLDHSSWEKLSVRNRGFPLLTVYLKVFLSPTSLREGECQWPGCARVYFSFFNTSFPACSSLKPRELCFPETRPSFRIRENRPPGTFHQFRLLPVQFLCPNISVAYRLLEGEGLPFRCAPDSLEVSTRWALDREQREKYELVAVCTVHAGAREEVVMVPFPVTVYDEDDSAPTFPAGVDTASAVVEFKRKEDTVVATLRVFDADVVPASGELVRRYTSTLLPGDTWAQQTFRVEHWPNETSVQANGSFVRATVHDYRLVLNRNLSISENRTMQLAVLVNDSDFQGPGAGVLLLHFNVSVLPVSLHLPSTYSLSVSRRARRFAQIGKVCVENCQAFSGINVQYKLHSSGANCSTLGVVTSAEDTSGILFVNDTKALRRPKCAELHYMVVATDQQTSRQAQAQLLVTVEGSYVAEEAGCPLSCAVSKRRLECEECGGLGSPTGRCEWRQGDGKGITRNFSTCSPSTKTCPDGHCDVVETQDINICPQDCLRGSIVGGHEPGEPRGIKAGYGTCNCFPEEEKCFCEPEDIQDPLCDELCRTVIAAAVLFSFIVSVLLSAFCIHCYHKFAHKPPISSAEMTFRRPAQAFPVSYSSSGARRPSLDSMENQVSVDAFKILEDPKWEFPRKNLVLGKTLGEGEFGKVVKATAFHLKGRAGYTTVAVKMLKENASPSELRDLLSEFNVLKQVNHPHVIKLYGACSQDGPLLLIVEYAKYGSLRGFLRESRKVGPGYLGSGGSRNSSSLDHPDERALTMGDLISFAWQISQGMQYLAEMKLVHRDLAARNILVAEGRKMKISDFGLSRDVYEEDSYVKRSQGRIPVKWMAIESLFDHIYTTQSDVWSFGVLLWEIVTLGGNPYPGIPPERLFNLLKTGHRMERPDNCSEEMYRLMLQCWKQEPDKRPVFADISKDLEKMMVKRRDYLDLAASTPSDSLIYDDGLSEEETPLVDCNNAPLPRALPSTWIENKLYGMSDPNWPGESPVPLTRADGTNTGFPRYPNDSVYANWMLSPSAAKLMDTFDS

## O=C(Cc1ccc(NC(=O)c2cccc(Cl)c2)cc1)NCc1ccccc1 [Compound 4e, N-(4-(2-(benzylamino)-2-oxoethyl)phenyl)-3-chlorobenzamide]
AKT 1/2/3; HL60, versus no treatment
  increased phosphorylation of Akt1/2/3 at Thr308 and Ser473 compared to control: > 117 fold
AKT 1/2/3; HL60 cell lysate, treated
  phosphokinase signal after 4e exposure, AKT 1/2/3: 22.29
AKT 1/2/3; treated vs untreated HL60
  % Change, AKT 1/2/3: 11783.08%
  Change in Signal, AKT 1/2/3: 22.10
GSK-3α/β; HL60 cell lysate, treated
  phosphokinase signal after 4e exposure, GSK-3α/β: 102.64
GSK-3α/β; treated vs untreated HL60
  Change in Signal, GSK-3α/β: 22.94
GSK-3α/β; treated vs untreated HL60, Ser9 phosphorylation
  % Change, GSK-3α/β: 28.78% and 28%
Yes
  Mean Final Score: 1.1516
  Mean Kinase Statistic: -0.4139
  Mean Significance Score: 1.0126
  Mean Specificity Score: 0.1390
HSP27; HL60, versus control
  decrease of Hsp27 Ser78 and Ser82 phosphorylation: 92.3%
HSP27; HL60 cell lysate, treated
  phosphokinase signal after 4e exposure, HSP27: 3.71
HSP27; treated vs untreated HL60
  % Change, HSP27: -92.31%
  Change in Signal, HSP27: -44.51
JNK1/2/3; HL60 cell lysate, treated
  phosphokinase signal after 4e exposure, JNK1/2/3: 20.91
JNK1/2/3; treated vs untreated HL60
  % Change, JNK1/2/3: -50.61%
  Change in Signal, JNK1/2/3: -21.43
CTK
  Mean Final Score: 1.5802
  Mean Kinase Statistic: -0.4874
  Mean Significance Score: 1.1881
  Mean Specificity Score: 0.3920
Fyn
  Mean Final Score: 1.4765
  Mean Kinase Statistic: -0.4963
  Mean Significance Score: 1.1307
  Mean Specificity Score: 0.3458
Ret
  Mean Final Score: 2.3893
  Mean Kinase Statistic: -0.7112
  Mean Significance Score: 1.0953
  Mean Specificity Score: 1.2940
